From patent US10139410B2, “Protein-protein interaction as biomarkers” (H. LEE MOFFITT CANCER CENTER AND RESEARCH INSTITUTE, INC., priority 2011, dated 2018)

Columns and labels:
[1] = system: EGFR-SHC1; format: in vivo, mice; conditions: H1650 (EGFR mutant) or H322 (EGFR wildtype) xenografts, with or without erlotinib, 18 days
Protocol: (§1) Tumor xenografts were established in mice with either H1650 (EGFR mutant) or H322 (EGFR wildtype), treated with or without erlotinib and allowed to grow for 18 days. Formalin-fixed, paraffin-embedded tumor tissue was analyzed by PLA for the interaction of EGFR-GRB2 (left) and EGFR-SHC1 (right). Nuclei are shown in blue, PLA signal is red and cytokeratin is green. For clarity, identical images are shown with and without cytokeratin staining for each tumor.
(§2) Tumor tissues from subcutaneous mouse models of lung cancer will be used. […] Mice have been selected for these experiments since they are most suitable for xenograft and […] studies of lung cancer, are readily available and not endangered, and can be safely maintained in the laboratory animal vivarium. CD-1 nu/nu mice mice will be purchased from approved vendors and housed in institutional animal facilities according to protocols set out by the American Association for Accreditation of Laboratory Animal Care. The inventor currently has active IACUC protocol for establishing subcutaneous tumor xenografts in mice. Both male and female mice of approximately six weeks of age will be used. Mice will be anesthetized in an induction chamber containing 3% isoflurane and 97% oxygen.

[2] = system: EGFR-GRB2; format: in vivo, mice; conditions: H1650 (EGFR mutant) or H322 (EGFR wildtype) xenografts, with or without erlotinib, 18 days
Protocol: as §1, §2

[3] = system: EGFR binding of Grb2, Mig6, Sts1; experiment: Affinity purification mass spectrometry (AP-MS) of EGFR interactions; format: cell-based, human; conditions: cells treated with erlotinib; data not shown
From the text: The present inventors have initiated a system wide and global analysis of the PPI driven by hyperactivated epidermal growth factor receptor (EGFR) resulting from somatic mutation in non-small cell lung cancer (NSCLC) (17-19). The inventors' approach has been to combine (i) affinity purification—mass spectrometry (AP-MS) and (ii) phosphotyrosine proteomics. The inventors use cell models that harbor mutant EGFR proteins and are highly sensitive to EGFR TKI. As the network of EGFR is highly dependent on cell context, this approach offers the best chance of recovering pertinent proteins and mechanisms, a potential flaw in using cells other than lung cancer cells driven by mutant EGFR. Tagged versions of EGFR are initially used to identify interactions and second round of AP-MS is performed to more fully construct the network (20, 21). The inventors simultaneously performed tyrosine phosphoproteomics—tyrosine phosphorylated (pTyr) peptides are enriched using an anti-phosphotyrosine antibody and then identified and quantified on an Orbitrap mass spectrometer using published methods (9). […]
EGFR inhibitors are predicted to disrupt signaling complexes on the EGFR protein. […] Changes in EGFR PPI will be determined using PLA on these tumor samples. Measurements of EGFR PPI using PLA will be analyzed from the pre-treatment sample and again on the post-treatment sample.

[4] = system: lung cancer cell lines; experiment: Sensitivity of lung cancer cell lines to EGFR TKI; format: cell-based, human
[5] = system: phosphor-EGFRY1068; experiment: PLA for phosphorylated EGFR in cell lines (single antibody to phospho-EGFR Y1068); format: cell-based, human; conditions: PC9 cells, 3 hours of treatment
Protocol: 9. […] Record start time • b. Incubation time should be 16-18 h
11. […] Ensure complete coverage of tissue area.

[6] = system: EGFR-GRB2 interactions; set-up: species or system nude mice; conditions: mouse, in vivo
Protocol: 5. […] Record start time • b. Incubation time should be 16-18 h

[7] = system: EGFR; format: cell-based, human

SMILES: C#Cc1cccc(Nc2ncnc3cc(OCCOC)c(OCCOC)cc23)c1 [erlotinib]
- EGFR-SHC1 PLA signal in tumor tissue [1]: markedly reduced
- EGFR-GRB2 PLA signal in tumor tissue [2]: markedly reduced
- EGFR binding partners by mass spectrometry [3]: no longer bound Grb2, Mig6 or Sts1
- sensitivity to EGFR TKI (erlotinib) ([4]; A549, H23 and H460 cells): resistant
- erlotinib sensitivity ([4]; H322 and H1648 cells): some degree of erlotinib sensitivity
- sensitivity to EGFR TKI (erlotinib) ([4]; H1648, H322, H358 and H292 cells, wildtype EGFR): some degree of sensitivity
- phosphorylation of EGFR by PLA (pEGFR Y1068), confirmed by immunoblot [5]: abolishes
- EGFR-GRB2 PLA signal in tumor [6]: considerably reduced
- proteins in complex with EGFR (PLA) [6]: reductions in proteins in complex with EGFR
- EGFR tyrosine phosphorylation [7]: inhibits
